In patent publication EP3928779A1 (Chugai Seiyaku Kabushiki Kaisha, priority 2014, dated 2016):

Test system: rat small-intestinal brush border membrane vesicles
Assay: Inhibitory effect on 33PO4 uptake into rat small-intestinal brush border membrane vesicles (rapid filtration method)
Type: biochemical
Details: 33PO4 uptake into rat small-intestinal BBMVs; test compound 1 µM; reacted for 60 seconds
How it was run: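 Uptake of ^33PO4 was measured by rapid filtration and liquid scintillation counting of filter-retained vesicles, after quenching with ice-cold 110 mM NaCl/1 mM KH2PO4/10 mM HEPES pH 7.5. Vesicles were brush border membranes from the upper small intestine of female Wistar rats aged 4–5 weeks.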

Compound	Rate of uptake inhibition (%) (1 µM)
(4aS,5S,8R)-1-(3-Fluorobenzyl)-4-hydroxy-N-(5-methyl-2-(trifluoromethyl)furan-3-yl)-2-oxo-2,4a,5,6,7,8-hexahydro-1H-5,8-methanopyrido[1,2-b]pyridazine-3-carboxamide [Example 20]	21%
COCCN(C)CCN(C)c1ccc(CN2C(=O)C(C(=O)Nc3ccc(C(F)(F)F)cc3-c3cc(C(F)(F)F)ncn3)=C(O)C3(CCCC3)N2C)c(F)c1F [Example 442]	24%
CN1[C@@H](C(C)(C)C)C(O)=C(C(=O)Nc2ccc(Cl)cc2-c2cc(C#N)ncn2)C(=O)N1Cc1ccc(OCCN2CCOCC2)c(F)c1F [Example 272]	43%
CN1N(Cc2cccc(F)c2F)C(=O)C(C(=O)Nc2ccc(C(F)(F)F)nc2-c2ccc(C(F)(F)F)nc2)=C(O)C1(C)C [Example 304]	51%
CN1N(Cc2ccc(C#CCN3CCOCC3)c(F)c2F)C(=O)C(C(=O)Nc2ccc(C(F)(F)F)cc2-c2cc(C(F)(F)F)ncn2)=C(O)C1(C)C [Example 315, 2-[[2,3-Difluoro-4-(3-morpholin-4-ylprop-1-ynil)phenyl]methyl]-5-hydroxy-1,6,6-trimethyl-3-oxo-N-[4-(trifluoromethyl)-2-[6-(trifluoromethyl)pyrimidin-4-yl]phenyl]pyridazine-4-carboxamide]	63%
C[C@]12CCCN1N(Cc1ccc(F)c(F)c1)C(=O)C(C(=O)Nc1ccc(C(F)(F)F)cc1-c1cc(C(F)(F)F)ncn1)=C2O [Example 214]	91%
COCCOc1cc(NC(=O)C2=C(O)C3(CCCC3)N(C)N(Cc3ccc(OCCN(C)CCOC)c(F)c3F)C2=O)c(-c2ncnc(C(F)(F)F)c2C)cc1C(F)(F)F [Example 439, 7-[[2,3-Difluoro-4-[2-[2-methoxyethyl(methyl)amino]ethoxy]phenyl]methyl]-10-hydroxy-N-[5-(2-methoxyethoxy)-2-[5-methyl-6-(trifluoromethyl)pyrimidin-4-yl]-4-(trifluoromethyl)phenyl]-6-methyl-8-oxo-6,7-diazaspiro[4.5]dec-9-ene-9-carboxamide]	35%
CN1N(Cc2ccc(OCCCCOC[C@H](O)CO)c(F)c2F)C(=O)C(C(=O)Nc2ccc(C(F)(F)F)cc2-c2ccc(C(F)(F)F)nc2)=C(O)C12CCC2 [Example 384]	39%
CN1N(Cc2ccc(OCCn3cncn3)c(F)c2F)C(=O)C(C(=O)Nc2ccc(C(F)(F)F)cc2-c2cc(C(F)(F)F)ncn2)=C(O)C12CCC2 [Example 352]	27%
CN1N(Cc2ccc(OCCN3CCOCC3)c(F)c2F)C(=O)C(C(=O)Nc2ccc(Cl)cc2-c2cc(C(F)(F)F)ncn2)=C(O)C12CCCC2 [Example 286]	50%
CN1N(Cc2ccc(OCCN3CCOCC3)c(F)c2F)C(=O)C(C(=O)Nc2ccc(C(F)(F)F)cc2-c2cc(C(F)(F)F)ncn2)=C(O)C12CCCCC2 [Example 295]	21%
C[C@]12CCCN1N(Cc1cc(F)c(F)cc1F)C(=O)C(C(=O)Nc1cc(F)c(Br)c(F)c1)=C2O [Example 194]	80%
CCOc1cccc(-c2cc(C(F)(F)F)ccc2NC(=O)C2=C(O)[C@@]3(C)CCCN3N(Cc3cccc(F)c3F)C2=O)c1OC [Example 66]	96%
Cc1cccc(CN2C(=O)C(C(=O)Nc3ccc(C(F)(F)F)cc3-c3cc(C(F)(F)F)ncn3)=C(O)[C@@]3(C)CCCN23)c1F [Example 215]	86%
CN1N(Cc2ccc(OCCCCCOCCO)c(F)c2F)C(=O)C(C(=O)Nc2ccc(C(F)(F)F)cc2-c2cc(C(F)(F)F)ncn2)=C(O)C12CCCC2 [Example 397]	40%
CN(CCOCCC(=O)N(C)C[C@H](O)[C@@H](O)[C@H](O)[C@H](O)CO)CCOc1ccc(CN2C(=O)C(C(=O)Nc3ccc(C(F)(F)F)cc3-c3cc(C(F)(F)F)ncn3)=C(O)C3(CCCC3)N2C)c(F)c1F [Example 425]	5%
Cc1c(-c2cc(C(F)(F)F)ccc2NC(=O)C2=C(O)[C@H](C(C)(C)C)N(C)N(Cc3ccc(OCCN4CCOCC4)c(F)c3F)C2=O)ncnc1C(F)(F)F [Example 278]	69%
CN(CCOc1ccc(CN2C(=O)C(C(=O)Nc3ccc(C(F)(F)F)cc3-c3cc(C(F)(F)F)ncn3)=C(O)C3(CCCC3)N2C)c(F)c1F)C1COC1 [Example 412, 7-(2,3-Difluoro-4-(2-(methyl(oxetan-3-yl)amino)ethoxy)benzyl)-10-hydroxy-6-methyl-8-oxo-N-(4-(trifluoromethyl)-2-(6-(trifluoromethyl)pyrimidin-4-yl)phenyl)-6,7-diazaspiro[4.5]dec-9-ene-9-carboxamide]	52%
COCCN(C)CCOc1c(-c2cccnc2)cc(CN2C(=O)C(C(=O)Nc3ccc(C(F)(F)F)cc3-c3cc(C(F)(F)F)ncn3)=C(O)C3(CCCC3)N2C)c(F)c1F [Example 440, 9-[[2,3-Difluoro-4-[2-[2-methoxyethyl(methyl)amino]ethoxy]-5-(3-pyridinyl)phenyl]methyl]-6-hydroxy-10-methyl-8-oxo-N-[4-(trifluoromethyl)-2-[6-(trifluoromethyl)pyrimidin-4-yl]phenyl]-9,10-diazaspiro[4.5]dec-6-ene-7-carboxamide]	28%
CN1[C@@H](C(C)(C)C)C(O)=C(C(=O)Nc2ccc(C(F)(F)F)cc2-c2ccnc(C#N)c2)C(=O)N1Cc1ccc(OCCN2CCOCC2)c(F)c1F [Example 271]	60%

Compound	Rate of uptake inhibition (%) (1 µM)
COCCN1CC(Oc2ccc(CN3C(=O)C(C(=O)Nc4ccc(C(F)(F)F)cc4-c4cc(C(F)(F)F)ncn4)=C(O)C4(CCC4)N3C)c(F)c2F)C1 [Example 406]	27%
C[C@]12CCCN1N(Cc1cccc(F)c1F)C(=O)C(C(=O)Nc1ccc(C(F)(F)F)cc1-c1cnc(Cl)c(C#N)c1)=C2O [Example 68, (4aR)-N-[2-(6-Chloro-5-cyanopyridin-3-yl)-4-(trifluoromethyl)phenyl]-1-[(2,3-difluorophenyl)methyl]-4-hydroxy-4a-methyl-2-oxo-6,7-dihydro-5H-pyrrolo[1,2-b]pyridazine-3-carboxamide]	84%
C[C@]12CCCN1N(Cc1c(F)cc(C#CCCCCCOC[C@H](O)[C@@H](O)CO)cc1F)C(=O)C(C(=O)Nc1ccc(C(F)(F)F)cc1-c1ccc(C(F)(F)F)nc1)=C2O [Example 124]	81%
CN1N(Cc2ccc(OCC(=O)N3CCOCC3)c(F)c2F)C(=O)C(C(=O)Nc2ccc(C(F)(F)F)cc2-c2cc(C(F)(F)F)ncn2)=C(O)C12CCC2 [Example 336]	44%
C[C@]12CCCN1N(Cc1cccc(F)c1F)C(=O)C(C(=O)Nc1ccc(C(F)(F)F)cc1-c1cc(Cl)cnc1Cl)=C2O [Example 84]	91%
C[C@]12CCCN1N(Cc1cccc(F)c1F)C(=O)C(C(=O)Nc1ccc(Br)c(F)c1)=C2O [Example 28]	72%
COC[C@@H]1CCCN1CCOc1ccc(CN2C(=O)C(C(=O)Nc3ccc(C(F)(F)F)cc3-c3cc(C(F)(F)F)ncn3)=C(O)C3(CCCC3)N2C)c(F)c1F [Example 375]	31%
CN1N(Cc2ccc(OCCN3CCN(CCO)CC3)c(F)c2F)C(=O)C(C(=O)Nc2ccc(C(F)(F)F)cc2-c2cc(C(F)(F)F)ncn2)=C(O)C12CCC2 [Example 360]	21%
CN1N(Cc2cccc(F)c2F)C(=O)C(C(=O)Nc2ccc(Br)c(C(F)(F)F)n2)=C(O)C12CCC2 [Example 258]	87%
CN1N(Cc2ccc(OCCN3CCOCC3)c(F)c2F)C(=O)C(C(=O)Nc2ccc(C(F)(F)F)cc2-c2cc(C(F)(F)F)ncn2)=C(O)C12CCCC2 [Example 318, 7-[[2,3-Difluoro-4-(2-morpholin-4-ylethoxy)phenyl]methyl]-10-hydroxy-6-methyl-8-oxo-N-[4-(trifluoromethyl)-2-[6-(tritluoromethyl)pyrimidin-4-yl]phenyl]-6,7-diazaspiro[4.5]dec-9-ene-9-carboxamide]	43%
CC(C)[C@@H]1C(O)=C(C(=O)Nc2ccc(C(F)(F)F)cc2-c2cc(C(F)(F)F)ncn2)C(=O)N(Cc2cccc(F)c2F)N1C [Example 249]	50%
Cc1c(Cl)ncnc1-c1cc(C(F)(F)F)ccc1NC(=O)C1=C(O)[C@@]2(C)CCCN2N(Cc2cccc(F)c2F)C1=O [Example 69]	74%
COc1c(C#N)ncnc1-c1cc(C(F)(F)F)ccc1NC(=O)C1=C(O)[C@@]2(C)CCCN2N(Cc2cccc(F)c2F)C1=O [Example 25]	82%
CN1N(Cc2ccc(OCCCCCOC[C@H](O)CO)c(F)c2F)C(=O)C(C(=O)Nc2ccc(C(F)(F)F)cc2-c2ccc(C(F)(F)F)nc2)=C(O)C12CCC2 [Example 385]	39%
COC(=O)[C@@H]1CCCN1CCOc1ccc(CN2C(=O)C(C(=O)Nc3ccc(C(F)(F)F)cc3-c3cc(C(F)(F)F)ncn3)=C(O)C3(CCC3)N2C)c(F)c1F [Example 355]	36%
C[C@]12CCCN1N(Cc1cc(F)ccc1F)C(=O)C(C(=O)Nc1ccc(C(F)(F)F)cc1-c1ccc(C(F)(F)F)nc1)=C2O [Example 172]	72%
C[C@]12CCCN1N(Cc1cccc(F)c1)C(=O)C(C(=O)Nc1ccc(C(F)(F)F)cc1-c1ccc(C(F)(F)F)nc1)=C2O [Example 206]	76%
C[C@]12CCCN1N(Cc1c(F)cc(C#CCCCCOC[C@H](O)CO)cc1F)C(=O)C(C(=O)Nc1ccc(C(F)(F)F)cc1-c1ccc(C(F)(F)F)nc1)=C2O.[Na+] [Example 143]	71%
CN1N(Cc2cccc(F)c2F)C(=O)C(C(=O)Nc2cc(C(F)(F)F)ccc2-c2ccc(C(F)(F)F)nc2)=C(O)C1(C)C [Example 307]	41%
CN1N(Cc2cccc(F)c2F)C(=O)C(C(=O)Nc2ccc(C(F)(F)F)cc2-c2cc(C(F)(F)F)ncn2)=C(O)C12CCCC2 [Example 260]	70%
